Results as given in BigSolDB 2.1.

N[C@@H](Cc1c[nH]c2ccccc12)C(=O)O
solubility (mole fraction)
Details | in acetone | in acetonitrile | in ethanol | in ethyl acetate | in isopropanol | in methanol | in n-butanol | in water
278.15 K | 0.0001 | 1e-05 | 0.00012 | 4e-05 | 0.00011 | 0.00062 | 0.0001 | 0.00098
283.15 K | 0.00011 | 2e-05 | 0.00013 | 5e-05 | 0.00012 | 0.00066 | 0.00011 | 0.00105
288.15 K | 0.00013 | 2e-05 | 0.00014 | 7e-05 | 0.00014 | 0.00072 | 0.00012 | 0.00113
293.15 K | 0.00015 | 3e-05 | 0.00017 | 9e-05 | 0.00015 | 0.0008 | 0.00014 | 0.00124
298.15 K | 0.00018 | 4e-05 | 0.0002 | 0.00011 | 0.00018 | 0.0009 | 0.00017 | 0.00137
303.15 K | 0.00022 | 5e-05 | 0.00024 | 0.00014 | 0.00021 | 0.00102 | 0.0002 | 0.00154
308.15 K | 0.00026 | 7e-05 | 0.00028 | 0.00018 | 0.00024 | 0.00115 | 0.00024 | 0.00174
313.15 K | 0.00031 | 8e-05 | 0.00033 | 0.00023 | 0.00028 | 0.00131 | 0.00028 | 0.00199
318.15 K | 0.00037 | 0.0001 | 0.00038 | 0.00028 | 0.00033 | 0.00149 | 0.00034 | 0.00229
323.15 K | 0.00045 | 0.00012 | 0.00044 | 0.00034 | 0.00037 | 0.00166 | 0.0004 | 0.00261
328.15 K | 0.00056 | 0.00014 | 0.0005 | 0.00041 | 0.00043 | 0.00189 | 0.00049 | 0.00294
333.15 K | 0.00069 | 0.00017 | 0.00058 | 0.0005 | 0.0005 | 0.00217 | 0.00059 | 0.00328
